Here are results for 17 molecules from patent US20250092066A1, “SUBSTITUTED BICYCLIC HETEROCYCLES AS MALT-1 INHIBITORS” (AURIGENE ONCOLOGY LIMITED, priority 2022, published 2025).

The target in this assay is MALT-1 (Isoform1) (Homo sapiens (Human), UniProt Q9UDY8). The experiment in a line: Biochemical fluorescent assay of MALT-1 (Isoform1) enzyme inhibition. The settings on record: recombinant MALT-1 (Isoform1); for inhibition at 1 µM: read-out: Percent Inhibition (@ 1 μM); for IC50: 50 μM AC-LRSR-MAC substrate, 240 min. The protocol: The potency of compounds to inhibit MALT-1 (Isoform1) enzyme was tested in a Fluorescent assay using recombinant MALT-1 (Isoform1, aa-840) generated in-house. The assay buffer was 50 mM HEPES (pH 7.5), 100 mM NaCl, 10 mM DTT, 1 mM EDTA, 0.9 M sodium citrate, 0.01% CHAPS. 1.5 nM of MALT-1 enzyme was incubated with various concentrations of test compounds ([…]) (1% DMSO) in the presence of buffer for 30 minutes at 30° C. The protease reaction was initiated by adding 50 μM of AC-LRSR-MAC (Peptide International, USA) substrate and incubated for 240 min. After 240 min incubation, fluorescence emission of the samples at 460 nm was measured at an excitation of 355 nm. The percent inhibition was calculated using the following formula: […]. IC50 values were determined by fitting the dose-response data to sigmoidal curve fitting equation using Graph pad prism software VS.
MALT-1 (Isoform1), sequence (Q9UDY8 whole entry, canonical isoform): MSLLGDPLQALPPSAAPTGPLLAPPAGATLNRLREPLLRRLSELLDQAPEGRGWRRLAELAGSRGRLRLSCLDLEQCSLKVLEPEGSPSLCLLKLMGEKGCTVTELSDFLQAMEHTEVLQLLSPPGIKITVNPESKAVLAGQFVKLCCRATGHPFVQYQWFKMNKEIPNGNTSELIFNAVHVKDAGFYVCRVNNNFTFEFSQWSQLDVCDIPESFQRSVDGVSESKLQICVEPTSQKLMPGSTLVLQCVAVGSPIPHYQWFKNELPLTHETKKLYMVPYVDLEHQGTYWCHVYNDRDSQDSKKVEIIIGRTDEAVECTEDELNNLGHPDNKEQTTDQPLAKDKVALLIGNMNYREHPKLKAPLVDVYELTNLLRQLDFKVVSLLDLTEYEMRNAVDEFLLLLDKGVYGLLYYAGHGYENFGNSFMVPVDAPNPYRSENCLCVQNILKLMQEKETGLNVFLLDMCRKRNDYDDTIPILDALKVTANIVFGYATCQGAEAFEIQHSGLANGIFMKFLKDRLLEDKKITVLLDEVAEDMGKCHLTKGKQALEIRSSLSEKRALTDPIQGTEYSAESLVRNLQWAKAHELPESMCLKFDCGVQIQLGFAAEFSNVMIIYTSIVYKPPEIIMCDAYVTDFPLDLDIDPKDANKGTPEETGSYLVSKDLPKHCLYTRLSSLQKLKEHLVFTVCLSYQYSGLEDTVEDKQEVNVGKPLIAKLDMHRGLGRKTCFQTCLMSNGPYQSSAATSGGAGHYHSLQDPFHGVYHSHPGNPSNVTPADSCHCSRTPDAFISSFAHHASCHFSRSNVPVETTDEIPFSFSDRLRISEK

For orientation: inhibition means the percentage by which the read-out fell short of the control. Usually IC50 stands for the midpoint of a concentration-inhibition curve. In the case of `COC(c1c(NC(=O)Nc2cc(F)c3nc(C)nn3c2)cnc2cc(Cl)nn12)C1CC1` (racemic) [Example 32, 1-(2-chloro-7-(cyclopropyl(methoxy)methyl)pyrazolo[1,5-a]pyrimidin-6-yl)-3-(8-fluoro-2-methyl-[1,2,4]triazolo[1,5-a]pyridin-6-yl)urea], the IC50 was below 0.05 µM. Further, the inhibition at 1 µM (compound at 1 μM) is 100%.
On the same counts, the results for `CO[C@@H](C)c1c(NC(=O)Nc2cc(F)c3ncnn3c2)cnc2cc(C(F)F)nn12` [Example 45] are 0.051 to 0.25 µM and 78%.
As to `COC(C)c1c(NC(=O)Nc2cc(Cl)c3nc(C)nn3c2)cnc(C)c1Br` (single isomer, unassigned) [Example 35a, 1-(5-bromo-4-(1-methoxyethyl)-6-methylpyridin-3-yl)-3-(8-chloro-2-methyl-[1,2,4]triazolo[1,5-a]pyridin-6-yl)urea], the IC50 lay within 0.051 to 0.25 µM. Moreover, the “Percent Inhibition (@ 1 μM)” value (compound at 1 μM) stood at 88%.
As for `COc1cc(NC(=O)Nc2cnc3cc(Cl)nn3c2[C@H](C)OC)cn2nc(C)nc12` [Example 10], the IC50 was above 0.25 µM. In addition, where the note is “compound at 1 μM”, the inhibition at 1 µM was found to be 38%.
Take `Cc1nc2c(F)cc(NC(=O)Nc3cnc4cc(Cl)nn4c3C3(C(F)(F)F)CC3)cn2n1` [Example 23]: the IC50 is above 0.25 µM. For the same molecule, under “compound at 1 μM”, the inhibition at 1 µM came to 98%.
On the same counts, the results for `CO[C@@H](C)c1c(NC(=O)Nc2cc(F)c3ncnn3c2)cnc2cc(C(F)(F)F)nn12` [Example 27] are 0.051 to 0.25 µM and 87%.
On the same counts, the results for `CO[C@@H](C)[C@@H](OC)c1c(NC(=O)Nc2cc(F)c3nc(C)nn3c2)cnc2cc(Cl)nn12` [Example 21] are above 0.25 µM and 96%.
On the same counts, the results for `CO[C@@H](C)c1c(NC(=O)Nc2cc(F)c3nc(C)nn3c2)cnc2cc(C3CC3)nn12` [Example 46] are below 0.05 µM and 40%.
In the case of `CO[C@@H](C)c1c(NC(=O)Nc2ccc3nncn3c2)cnc2cc(Cl)nn12` [Example 20], the IC50 was above 0.25 µM. In addition, the inhibition at 1 µM (compound at 1 μM) is 16%.
On the same counts, the results for `Cc1nc2c(F)cc(NC(=O)Nc3cnc4cc(Cl)nn4c3C(C)C)cn2n1` [Example 16] are below 0.05 µM and 90%.
On the same counts, the results for `CO[C@@H](C)c1c(NC(=O)Nc2cc(Cl)c3nc(C(F)(F)F)nn3c2)cnc2cc(Cl)nn12` [Example 8] are below 0.05 µM and 94%.
On the same counts, the results for `CO[C@@H](C)c1c(NC(=O)Nc2cc(C#N)c3nc(C)nn3c2)cnc2cc(Cl)nn12` [Example 14] are below 0.05 µM and 99%.
Regarding `COC(C)c1c(NC(=O)Nc2cc(Cl)c3ncnn3c2)cnc(C)c1Br` (single isomer, unassigned) [Example 34a, 1-(5-bromo-4-(1-methoxyethyl)-6-methylpyridin-3-yl)-3-(8-chloro-[1,2,4]triazolo[1,5-a]pyridin-6-yl)urea], the IC50 was 0.051 to 0.25 µM. Moreover, the inhibition at 1 µM (compound at 1 μM) came to 79%.
On the same counts, the results for `CO[C@@H](C)c1c(NC(=O)Nc2cc(F)c3nccn3c2)cnc2cc(Cl)nn12` [Example 43] are 0.051 to 0.25 µM and 86%.
On the same counts, the results for `CO[C@@H](C)c1c(NC(=O)Nc2cc(F)c3nc(CO)nn3c2)cnc2cc(Cl)nn12` [Example 13] are 0.051 to 0.25 µM and 84%.
Turning to `COC(C)c1c(NC(=O)Nc2cc(Cl)c3ncnn3c2)cnc(C)c1Br` (racemic) [Example 34, 1-(5-bromo-4-(1-methoxyethyl)-6-methylpyridin-3-yl)-3-(8-chloro-[1,2,4]triazolo[1,5-a]pyridin-6-yl)urea], the IC50 was above 0.25 µM. Moreover, where the note is “compound at 1 μM”, the inhibition at 1 µM came to 71%.
On the same counts, the results for `CO[C@@H](C)c1c(NC(=O)Nc2cc(F)c3nc(C)nn3c2)cnc2cc(OC(F)F)nn12` [Example 26] are above 0.25 µM and 71%.
